In one test the target is T1, human NMT (Homo sapiens, UniProt P30419).
T1 construct: made in house; host or cells: E. coli
T1 sequence (P30419 1-416 isoform P30419-2): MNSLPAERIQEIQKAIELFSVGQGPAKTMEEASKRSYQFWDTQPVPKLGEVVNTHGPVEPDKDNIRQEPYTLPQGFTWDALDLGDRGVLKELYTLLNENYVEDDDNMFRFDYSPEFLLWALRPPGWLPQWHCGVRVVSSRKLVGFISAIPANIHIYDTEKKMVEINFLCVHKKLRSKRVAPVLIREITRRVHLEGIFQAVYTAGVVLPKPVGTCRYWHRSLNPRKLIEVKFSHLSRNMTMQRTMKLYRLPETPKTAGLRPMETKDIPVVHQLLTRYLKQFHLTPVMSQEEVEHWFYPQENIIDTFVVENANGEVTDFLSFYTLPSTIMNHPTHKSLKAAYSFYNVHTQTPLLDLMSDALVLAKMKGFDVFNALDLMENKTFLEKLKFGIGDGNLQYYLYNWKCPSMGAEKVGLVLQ
The test is described as follows: NMT enzyme inhibition assay (radiochemical HPLC end-point), human NMT. It is filed as biochemical. As to conditions: Table V. How it is done:
Recombinant Candida albicans and human NMTs were expressed and purified from E. coli using previously described protocols. [D. A. Towler et al, Proc. Natl. Acad. Sci. USA, 84, 2707-2712 (1987); R. C. Weigand et al, J. Biol. Chem., 267, 8591-8598 (1992); R. J. Duronio et al, Proc. Natl. Acad. Sci. USA, 89, 4129-4133 (1992)] The ability of compounds to inhibit Candida NMT enzymatic activity was assessed using a radiochemical HPLC end-point assay as described previously for Saccharomyces cerevisiae and human NMTs. [D. Towler et al, Proc. Natl. Acad. Sci. USA, 83, 2812-2816 (1986); W. J. Rocque et al, J. Biol. Chem., 268, 9964-9971 (1991)] The donor substrate [^3H]myristoyl-coenzyme A was enzymatically synthesized from [^3H]myristic acid (50 Ci/mmol, Amersham, Arlington Heights, Ill.) and coenzyme A (Fluka Chemical Corp., Ronkonkoma, N.Y.), and purified as described previously. [W. J. Rocque et al, J. Biol. Chem., 268, 9964-9971 (1991)] The peptide acceptor substrate GNAASARR-NH2 was prepared by solid-phase peptide synthesis using the t-Boc amino acid methodology, followed by HF treatment and reverse-phase HPLC purification. Inhibitor stock solutions were prepared at 22 mM in DMSO; the final concentration of DMSO in each assay was 0.5% (v/v). […] The reaction was quenched after 10 minutes at 24° C. by the addition of ice-cold MeOH, and the reaction products were separated and measured using C4 reverse-phase HPLC (Vydac 214TP10415; Separations Group, Hesperia, Calif.) and in-line scintillation counting using a Radiomatic A250 (Packard Instruments, Downers Grove, Ill.) and Ecolite(+) (ICN Biomedical, Costa Mesa, Calif.) as the scintillant. Selectivity was determined by calculating the ratio of the IC50 against human NMT to the IC50 against C. albicans NMT.

For the next test, the target named is T2, Candida albicans NMT (Candida albicans, UniProt P30418).
T2 construct: made in house; host or cells: E. coli
T2 sequence (P30418 1-451): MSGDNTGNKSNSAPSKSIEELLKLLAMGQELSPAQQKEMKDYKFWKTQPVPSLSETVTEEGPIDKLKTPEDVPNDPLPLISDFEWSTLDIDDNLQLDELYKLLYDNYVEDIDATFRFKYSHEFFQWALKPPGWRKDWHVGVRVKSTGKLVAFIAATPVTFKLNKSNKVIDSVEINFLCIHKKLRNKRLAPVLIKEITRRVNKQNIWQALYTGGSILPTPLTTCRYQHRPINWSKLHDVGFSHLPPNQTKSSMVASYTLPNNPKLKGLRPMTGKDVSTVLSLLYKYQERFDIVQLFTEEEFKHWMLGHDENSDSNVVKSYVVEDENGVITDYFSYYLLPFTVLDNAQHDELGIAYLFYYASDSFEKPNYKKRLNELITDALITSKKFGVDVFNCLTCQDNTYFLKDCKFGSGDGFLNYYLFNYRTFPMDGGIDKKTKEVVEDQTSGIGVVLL
The experiment in a line: NMT enzyme inhibition assay (radiochemical HPLC end-point), Candida NMT. It is filed as biochemical. As for the experimental part:
Recombinant Candida albicans and human NMTs were expressed and purified from E. coli using previously described protocols. [D. A. Towler et al, Proc. Natl. Acad. Sci. USA, 84, 2707-2712 (1987); R. C. Weigand et al, J. Biol. Chem., 267, 8591-8598 (1992); R. J. Duronio et al, Proc. Natl. Acad. Sci. USA, 89, 4129-4133 (1992)] The ability of compounds to inhibit Candida NMT enzymatic activity was assessed using a radiochemical HPLC end-point assay as described previously for Saccharomyces cerevisiae and human NMTs. [D. Towler et al, Proc. Natl. Acad. Sci. USA, 83, 2812-2816 (1986); W. J. Rocque et al, J. Biol. Chem., 268, 9964-9971 (1991)] The donor substrate [^3H]myristoyl-coenzyme A was enzymatically synthesized from [^3H]myristic acid (50 Ci/mmol, Amersham, Arlington Heights, Ill.) and coenzyme A (Fluka Chemical Corp., Ronkonkoma, N.Y.), and purified as described previously. [W. J. Rocque et al, J. Biol. Chem., 268, 9964-9971 (1991)] The peptide acceptor substrate GNAASARR-NH2 was prepared by solid-phase peptide synthesis using the t-Boc amino acid methodology, followed by HF treatment and reverse-phase HPLC purification. Inhibitor stock solutions were prepared at 22 mM in DMSO; the final concentration of DMSO in each assay was 0.5% (v/v). Inhibition assays were carried out by combining variable amounts of inhibitor or buffer with […] of [^3H]myristoyl-coenzyme A (1 μCi, 9.09 Ci/mmol) and 2.2 nmoles of GNAASARR-NH2 in a total volume of 60 μL of 0.2 M N-[2-hydroxy-ethyl]piperazine-N′-[2-ethanesulfonic acid], pH 7.4, 2 mM DL-dithiothreitol, 0.2 mM ethylene glycol-bis-(β-aminoethyl ether) N,N,N′,N′-tetraacetic acid, and initiating the reaction by the addition of 50 μL of a Candida NMT solution (7-12 ng/50 μL). Assays with human NMT were identical except that they used 60-75 ng/50 μL of enzyme solution and 0.22 nmoles of GNAASARR-NH2. The reaction was quenched after 10 minutes at 24° C. by the addition of ice-cold MeOH, and the reaction products were separated and measured using C4 reverse-phase HPLC (Vydac 214TP10415; Separations Group, Hesperia, Calif.) and in-line scintillation counting using a Radiomatic A250 (Packard Instruments, Downers Grove, Ill.) and Ecolite(+) (ICN Biomedical, Costa Mesa, Calif.) as the scintillant. Selectivity was determined by calculating the ratio of the IC50 against human NMT to the IC50 against C. albicans NMT.

Test [1] has as its system Candida albicans, strain B311. The test is described as follows: Antifungal susceptibility testing, microdilution broth, pH 5.4/30° C./YNB. The test is classed as cell-based. As to conditions: B311, 24 hours, Table V (values agree with pH 5.4 assay), read-out: caEC50 24 hours. How it is done:
Antifungal Screens were set up initially against Candida albicans, strain B311, and Cryotococcus neoformans, strain L210425. Both pathogens, (originally from the stock culture collection, Medical mycology research center, Washington university-Barnes hospital), were obtained from Dr.Kobayashi, Prof.of infectious diseases, Washington University, St.Louis, Mo.
All cultures are maintained at 30° C. on Sabouraud's dextrose agar slants and subcultured at monthly intervals to fresh medium. All inocula for susceptibility testing are prepared in yeast nitogen base(YNB, Difco) broth.
A loopful of growth from Sabouraud dextrose agar slant is inoculated into 4 ml of YNB broth media and incubated at 30° C. overnight (18-24 hrs) with constant agitation (Gyratory Shaker, New Brunswick Scientific). Prior to setting up susceptibility testing, the organisms are counted in a hemocytometer, and diluted as needed into assay media.
1) (Assay at DH 5.4/30° C. Incubation/YNB Media).
Antifungal assays were carried out initially by a modification of the method published by Jones, et. al; (1), and communicated to Searle by Dr. Kobayashi, Washington University. [R. N. Jones et al, Manual of Clinical Microbiology, 4th ed., (1985)]
The antifungal susceptibility testing consists of a microdilution broth procedure performed in 96 well microtiter plates (Costar, cat#3799). Briefly, test compounds from a 20 mM stock solution in DMSO are diluted into sterile, deionized water (final DMSO concentration not exceeding 1%), to yield 2× the desired concentration (100 uM, 10 uM and 1 uM for an initial screen, or a selected concentration range in serial 2 fold dilutions for EC50 determination). One hundred microliters (100 ul) of each concentration is dispensed into triplicate wells of a 96 well microtiter plate. Appropriate dilutions of a suspension of C.albicans (1×10^6 cells/ml) in 2× YNB is distributed into each of the wells, including growth control wells containing no test compound as well as control wells with 0.5% DMSO. Amphotericin B at 0.05, 1 and 5 ug/ml is included in each assay plate as a positive control. The plates are incubated at 30° C. and cell growth is scored by reading the absorbance at 590 nm on an Elisa plate reader(Dynatech, MR.5000).

Another test concerns C. albicans 516. The test is described as follows: Antifungal susceptibility testing, pH 7.0/35° C., 1x10^3 cells/mL. It is filed as cell-based, Candida albicans. As to conditions: Candida albicans, 516; pH 7.0/35° C./1x10^3 cells/mL, 48 hrs; read-out: EC50 - 48 HRS C.albicans (516). How it is done:
(§1) 2) Assay at pH 7.0/35° C. Incubation/(Candida Strains Only).
(§2) Based on several papers published during 1990-1993 regarding the standardization of testing procedures at multiple research centers, and the finding that, inoculum size, pH of media, and the temperature of incubation drastically affect the antifungal activity of several compounds, particularly in the Azole class of antifungals, an additional assay was configured at pH 7.0 for Candida albicans. [M. A. Pfaller et al, Antimicrobial Agents and Chemotherapy, 34, 1648-1654 (1990); F. C. Odds et al, Antimicrobial Agents and Chemotherapy, 36, 1727-1737 (1992); R. A. Cook et al, Antimicrobial Agents and Chemotherapy, 34, 1542-1545 (1990)]
(§3) The assay format is identical to the first one with the following modifications: C.albicans cells are diluted to 1×10^3 cells/ml into 2× buffered YNB (YNB buffered with 1.65 mM MOPS, pH 7.0, with the addition of 2% Dextrose and 0.08% casamino acids mixture, bio 101. inc,cat #10420-100). Incubation is carried out at 35° C. instead of 30° C., and cell growth is monitored at 590 nm at 24 and 48 hrs as described. All other aspects of the assay are identical. This assay was validated with amphotericin B, fluconazole, cilofungin (Ly-121019), Nikkomycin and terbinafine using the following Candida strains- (C.albicans, B311, C.parasilosis, C.tropicalis, C.lusitaniae, C.glabrata, and C. albicans 516)-Table II. All strains were from Dr. Kobayashi, Washington university.

The next test deals with C.albicans, B311. Described as above. The test is classed as cell-based. As to conditions: Candida albicans, B311; pH 7.0/35° C./1x10^3 cells/mL, 48 hrs; read-out: EC50 - 48 HRS C.albicans. As for the experimental part:
as §1, §2, §3

Another test concerns C.glabrata. The description is as above. It is filed as cell-based. As to conditions: Nakaseomyces glabratus; pH 7.0/35° C./1x10^3 cells/mL, 48 hrs; read-out: EC50 - 48 HRS C.glab. As for the experimental part:
as §1, §2, §3

Another test deals with C.lusitaniae. The test is described as above. The test is classed as cell-based. As to conditions: Clavispora lusitaniae; pH 7.0/35° C./1x10^3 cells/mL, 48 hrs; read-out: EC50 - 48 HRS C.lusi. As for the experimental part: as §1, §2, §3
The test system of the next test is C.parasilosis. Described as above. The test is classed as cell-based. As to conditions: pH 7.0/35° C./1x10^3 cells/mL, 48 hrs; read-out: EC50 - 48 HRS C.para. How it is done: as §1, §2, §3
The test system of the next test is C.tropicalis. The test is described as above. It is filed as cell-based. As to conditions: Candida tropicalis; pH 7.0/35° C./1x10^3 cells/mL, 48 hrs; read-out: EC50 - 48 HRS C.trop. How it is done: as §1, §2, §3

These results are taken from US6632921B1, “Seryl-lysyl-based peptide and peptidomimetic inhibitors of N-myristoyl transferase as anti-infective agents” (G. D Searle & Co, priority 1995, dated 2003).

≈ marks a conversion by molar mass, not a printed value.

What is called IC50 is the midpoint of a concentration-inhibition curve. Regarding `Cc1nccn1CCCCc1ccc(C(C)C(=O)N[C@@H](CO)C(=O)N[C@@H](CCCCN)C(=O)N[C@@H](CC2CCCCC2)C(=O)O)cc1` (mixture of isomers) [Example 1, L-Alanine, 3-cyclohexyl-N-[N^2-[N-[2-[4-[4-(2-methyl-1H-imidazol-1-yl)butyl]phenyl]oxopropyl]-L-seryl]-L-lysyl]-, (±), bis-trifluoroacetate], the IC50 stood at 850 µM at human NMT and 0.4 µM at Candida albicans NMT (Table V, read-out: IC50 caNMT). The Selectivity at Candida albicans NMT (ratio of IC50 against human NMT to IC50 against C. albicans NMT) stood at 2200. The EC50 in test [1] was determined as 33 µM.

`C[C@@H]1[C@H](O)[C@@H](C)/C=C/C=C/C=C/C=C/C=C/C=C/C=C/[C@H](O[C@@H]2O[C@H](C)[C@@H](O)[C@H](N)[C@@H]2O)C[C@@H]2O[C@](O)(C[C@@H](O)C[C@@H](O)[C@H](O)CC[C@@H](O)C[C@@H](O)CC(=O)O[C@H]1C)C[C@H](O)[C@H]2C(=O)O` [Amphotericin, amphotericin B]: the EC50 with C. albicans 516 worked out at 0.14 µg/mL (≈ 0.152 µM); in the test with C.albicans, B311, 0.11 µg/mL (≈ 0.119 µM); with C.glabrata, 0.47 µg/mL (≈ 0.509 µM); in the test on C.lusitaniae, 0.42 µg/mL (≈ 0.455 µM); with C.parasilosis, 0.31 µg/mL (≈ 0.335 µM); in the test on C.tropicalis, 0.44 µg/mL (≈ 0.476 µM).

Turning to `OC(Cn1cncn1)(Cn1cncn1)c1ccc(F)cc1F` [Fluconazole, fluconazole], the EC50 worked out at 0.65 µg/mL (≈ 2.12 µM) in the test on C. albicans 516; 0.71 µg/mL (≈ 2.32 µM) with C.albicans, B311; 26 µg/mL (≈ 84.9 µM) in the test with C.glabrata; 0.6 µg/mL (≈ 1.96 µM) with C.lusitaniae; 0.91 µg/mL (≈ 2.97 µM) with C.parasilosis; 2.6 µg/mL (≈ 8.49 µM) with C.tropicalis.
